The values below come from patent US20120258938A1, “Enzymatic Production or Chemical Synthesis and Uses for 5,7-Dienes and UVB Conversion Products Thereof” (priority 2008, published 2012).

Assay [1] concerns immortalized normal epidermal melanocytes (PIG1 line). The assay is described as follows: Proliferation of PIG1 melanocytes. It is filed as cell-based. As to conditions: PIG1, 72 h.
Assay [2] concerns SKMEL-188 human melanoma cells. In words: Proliferation (DNA synthesis) of SKMEL-188. Type of assay: cell-based. As to conditions: SKMEL-188, 72 h. Here is the method: To measure DNA synthesis, keratinocytes, melanoma or prostate cancer cells were plated in 96-well plates. After overnight incubation tested compounds were added to the medium to achieve final concentrations 10^−7-10^−10 [M]. 100 μl of medium per well containing vitamin D3 compound was added to the cells. After 36 hours of incubation [3H]-thymidine (specific activity 88.0 Ci/mmol; Amersham Biosciences, Picataway, N.Y., USA) was added at 1 μCi/mL medium. After 12 hours, media were discarded, cells detached with trypsin and harvested on a glass fiber filter (Packard, Meriden, Calif., USA). 3H-radioactivity was measured with a beta counter (Direct Beta-Counter Matrix 9600; Packard).
HaCaT keratinocytes were an incubated for 48 h (FIG. 48A) or 72 h (FIG. 48B) in the presence of graded concentrations of 20(OH)D2 and/or 1,25(OH)2D3. […] Data are shown as mean±SD (n 3); *, p<0.05; **, p<0.01.

Assay [3] deals with collagen-induced arthritis (CIA) in DBA/1 Lac J mice. In words: Type II collagen-induced arthritis (CIA) model. It is filed as in vivo, mouse. As to conditions: i.p. every day at 2.5 μg/kg from day 14 post CII immunization. The text has this: The CIA model in DBA/1 Lac J mice has been widely studied as a model with some features of human RA, and has served as a reliable model to study various mediators and therapies of autoimmune arthritis. The immunization of DBA/1 Lac J mice with native bovine CII in complete Freund's adjuvant (CFA) is followed 10-14 days later by the onset of arthritis in the distal extremities. […] The arthritis is characterized by acute, subacute and chronic inflammation that correlates with histologic changes in distal extremity joints that progressively worsens during the subsequent 10 to 40 day period. The arthritis is dependent on the generation of inflammatory mediators from activation of the complement cascade by anti-CII antibodies, the infiltration of neutrophils, monocytes and T cells into the joint resulting in liberation of inflammatory cytokines and various proteases (42).
Twenty-four DBA/1 Lac J female mice 6 wks old were immunized with bovine CII in CFA. […] Arthritis severity was assessed every 3-4 days by two observers and each paw was given a score of 0=no swelling; 1=slight swelling and redness; 2=moderate swelling and redness; 3=marked swelling and redness; and 4=marked swelling and redness with deformity. […]

In a further assay the test system is type I collagen. In words: Type I collagen ELISA, TGF-b1 stimulated skin fibroblasts. It is filed as cell-based. Particulars: human skin fibroblasts. The method, then:
Additional studies using human skin fibroblasts were performed employing a type I collagen specific ELISA Chondrex, and real time RT PCR to quantitate type I collagen protein and Col1A1 mRNA expression in culture of human fibroblast stimulated by TGF-b1 in the presence and absence of 17,20S(OH)2pD3 and/or 20(OH)D3. These studies confirmed that Type I collagen protein production that was induced by TGF-b1 and that Col1A1 mRNA that was induced by TGF-b1 were suppressed by these analogues (FIGS. 44A-44B).
For orientation: An ELISA detects its analyte on a solid surface through an enzyme-linked reagent.

The next assay deals with NFκB. The assay is described as follows: Electrophoretic mobility shift assay for NF-κB activation. Type of assay: cell-based, human. As to conditions: HaCaT nuclear extracts, 10^−7 M. The text has this:
Electrophoretic mobility shift assay (EMSA) was done using the Odyssey Infrared Imaging System (LI-COR, Inc., Lincoln, Nebr.). The synthetic IRDye-labeled oligonucleotide (LI-COR) used for the DNA mobility shift assay contained the wild-type VDRE sequence sp1 promoter and part of INVOLUCRIN sequence contained the sequence: 5′-GCGGGAGGCAGATCTGGCAGATACTGA-3′ (SEQ ID NO: 3). Oligo was end labeled with infrared dye 700. Unlabeled oligo contained the same sequence. The DNA binding reaction was set up using 2.5 μg of the nuclear extract mixed with oligonucleotide and gel shift binding buffer consisting of: 2.5 mmol/L DTT, 0.25% Tween-20 and 0.25 mg/ml poly(dl):poly(dC) according to the LI-COR protocol. The reaction was incubated at room temperature in the dark for 30 minutes. For NF-κB activation p65 antibody was added to the 1 sample and incubated for the 30 min. Orange loading dye (2 μl of 10×) was added to each sample and loaded on the prerun 5% polyacrylamide gel and ran at 80V for 1 hour. The gel was scanned using Odyssey Infrared Imaging System.
HaCaT keratinocytes were treated with 20,23-dihydroxycholecalciferol for indicated time: 0 h, 30 min, 1 h, 4 h, 16 h and 24 h, at the concentration of 10^−7 [M]. […]

The next assay relates to NFκBI (IκBα). The assay is described as follows: Western blot IκB-α in HaCaT and normal keratinocytes. Type of assay: cell-based, human. Particulars: 100 nM, time dependant. The method, then: HaCaT keratinocytes were treated with 20,23-dihydroxycholecalciferol for indicated time: 0 h, 30 min, 1 h, 4 h, 16 h and 24 h, at the concentration of 10^−7 [M]. Cells were lysed and whole cell extract has been prepared. The equal amount of proteins calculates using Bradford method has been subjected to electrophoresis in SDS-PAGE 7-15% gel and transferred to a PVDF membrane (Millipore). The primary antibodies used were the rabbit polyclonal antibodies of anti+ IκB-α (Santa Cruz), 1:250 dilution, anti-p65 (Santa Cruz) 1:500 dilution and anti-β actin-peroxidase (Sigma) 1:1000 dilution. Secondary antibody used was anti rabbit-HRP (Santa Cruz) 1:7,000 dilution.
A general note: In western blotting, separated proteins are transferred to a membrane and probed.

The subject of assay [4] is K562 human chronic myeloid leukemia cells. In words: Viable cell count, K562 cells. It is filed as cell-based. As to conditions: 10^-7 M, 7 days. The method, then: (§1) K562 human chronic myeloid leukemia (erythroleukemia) and MEL mouse erytholeukemia cells were cultured in RPMI 1640 containing 10% FBS and treated with the drugs at concentrations 0.1 μM. A 0.1% ethanol (EtOH) or 2% DMSO were used as negative or positive control, respectively to estimate the vehicle effect and the ability of the cells to differentiate. Media were exchanged every 72 h and drugs added every day. Growth of cultures was estimated by counting number of viable cells (trypan blue negative cells) as described previously.

Assay [5] relates to mouse erytholeukemia cells (Mel). In words: Viable cell count, MEL cells. It is filed as cell-based. As to conditions: 10^-7 M, 7 days. The method, then:
as §1

Consider `C=C1/C(=C\C=C2/CCC[C@]3(C)[C@@H]([C@H](C)CCCC(C)(C)O)CC[C@@H]23)C[C@@H](O)C[C@@H]1O` [1α,25-dihydroxycholecalciferol, (5Z,7E)-9,10-secocholesta-5,7,10(19)-triene-1α,3β,25-triol, reference compound], for which the proliferation entry in assay [1] and in assay [2] was “Dose dependent inhibition of the proliferation” throughout.
With `C=C1CC[C@H](O)C/C1=C/C=C1\CCC[C@@]2(C)[C@H]1CC[C@@H]2[C@@](C)(O)CCCC(C)C` [20(OH)D3, (5Z,7E)-9,10-secocholesta-5,7,10(19)-triene-3β,20-diol], in assay [3], the “arthritis severity (CIA)” value is given as “suppresses CIA”. In addition, in the assay on type I collagen, the “TGF-b1 induced Type I collagen protein production (ELISA)” value is “suppressed”.
With `C=C1CC[C@H](O)C/C1=C/C=C1\CCC[C@]2(C)[C@@H](C(C)(O)CC(O)CC(C)C)CC[C@@H]12` (stereo partly drawn) [20,23-dihydroxycholecalciferol, (5Z,7E)-9,10-secocholesta-5,7,10(19)-triene-3β,20,23-triol], in the assay with NFκB, the “NFκB DNA-binding activity (EMSA)” value is “inhibited the NFκB binding activity”. Further, the “NFκBI (IκBα) protein levels” value in the assay with NFκBI (IκBα) is “induced an increase in NFκBI (IκBα) protein levels”.
As for `C=C1CC[C@H](O)C/C1=C/C=C1\CCC[C@]2(C)[C@@H](C(C)=O)CC[C@@H]12` [pD3, (5Z,7E)-3β-hydroxy-9,10-secopregna-5,7,10(19)-trien-20-one], in assay [4], the “proliferation of K562 cells” value is reported as “inhibit proliferation”. Besides, the “proliferation of mouse erytholeukemia cells (Mel)” value in assay [5] is on record as “inhibit proliferation”.
